Test results published in ChEMBL document CHEMBL4507279, “Data for DCP probe BI-9627” (2021).

Key:
Conditions in all cases: Compound concentration 10.0 uM
[1] = biological target: Beta-2 adrenergic receptor (Homo sapiens) (UniProt P07550); assay: BETA2/HU Eurofins-Panlabs selectivity data (BI)
[2] = biological target: B1 bradykinin receptor (Homo sapiens) (UniProt P46663); assay: B1/H Eurofins-Panlabs selectivity data (BI)
[3] = biological target: Glutamate receptor ionotropic, kainate 1 (Rattus norvegicus) (UniProt P22756)
Sequence of Glutamate receptor ionotropic, kainate 1 (Rattus norvegicus) (P22756 whole entry): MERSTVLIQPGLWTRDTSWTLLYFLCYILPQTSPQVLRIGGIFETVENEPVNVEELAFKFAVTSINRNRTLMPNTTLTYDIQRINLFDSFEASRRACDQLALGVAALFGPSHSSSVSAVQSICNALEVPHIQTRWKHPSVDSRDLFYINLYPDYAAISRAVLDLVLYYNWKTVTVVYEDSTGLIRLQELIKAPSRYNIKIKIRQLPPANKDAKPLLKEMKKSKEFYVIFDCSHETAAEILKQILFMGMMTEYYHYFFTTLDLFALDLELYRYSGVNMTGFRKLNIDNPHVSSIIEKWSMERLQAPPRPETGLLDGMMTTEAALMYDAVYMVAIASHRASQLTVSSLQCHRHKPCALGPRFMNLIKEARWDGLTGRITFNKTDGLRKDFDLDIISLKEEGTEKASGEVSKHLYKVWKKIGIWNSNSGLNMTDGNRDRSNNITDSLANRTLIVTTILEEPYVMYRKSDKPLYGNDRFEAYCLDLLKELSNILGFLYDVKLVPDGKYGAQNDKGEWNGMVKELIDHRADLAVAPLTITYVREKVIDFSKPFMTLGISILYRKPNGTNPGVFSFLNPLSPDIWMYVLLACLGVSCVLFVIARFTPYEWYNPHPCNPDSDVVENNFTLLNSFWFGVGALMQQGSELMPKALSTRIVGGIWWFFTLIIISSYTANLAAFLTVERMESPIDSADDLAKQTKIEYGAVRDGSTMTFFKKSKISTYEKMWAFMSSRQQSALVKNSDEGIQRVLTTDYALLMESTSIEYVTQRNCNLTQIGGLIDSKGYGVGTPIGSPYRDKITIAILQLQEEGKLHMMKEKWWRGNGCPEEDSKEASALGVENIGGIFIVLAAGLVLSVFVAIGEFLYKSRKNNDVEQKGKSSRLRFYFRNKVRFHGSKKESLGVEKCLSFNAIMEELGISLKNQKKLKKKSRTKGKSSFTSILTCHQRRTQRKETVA

[4] = biological target: Adenosine receptor A3 (Homo sapiens) (UniProt P0DMS8); assay: A3/H Eurofins-Panlabs selectivity data (BI)
Sequence of Adenosine receptor A3 (Homo sapiens) (P0DMS8 whole entry): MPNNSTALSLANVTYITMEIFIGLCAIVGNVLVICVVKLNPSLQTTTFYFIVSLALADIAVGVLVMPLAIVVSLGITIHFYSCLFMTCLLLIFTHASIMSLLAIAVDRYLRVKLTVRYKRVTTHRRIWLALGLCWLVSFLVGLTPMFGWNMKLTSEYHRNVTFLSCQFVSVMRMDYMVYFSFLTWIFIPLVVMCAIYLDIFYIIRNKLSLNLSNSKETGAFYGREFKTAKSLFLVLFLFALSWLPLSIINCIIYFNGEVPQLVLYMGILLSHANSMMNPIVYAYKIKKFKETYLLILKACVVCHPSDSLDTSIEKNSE

[5] = biological target: T1, Alpha-1D adrenergic receptor (Homo sapiens) (UniProt P25100); assay: ALPHA1D/H Eurofins-Panlabs selectivity data (BI)
T1 sequence (whole entry): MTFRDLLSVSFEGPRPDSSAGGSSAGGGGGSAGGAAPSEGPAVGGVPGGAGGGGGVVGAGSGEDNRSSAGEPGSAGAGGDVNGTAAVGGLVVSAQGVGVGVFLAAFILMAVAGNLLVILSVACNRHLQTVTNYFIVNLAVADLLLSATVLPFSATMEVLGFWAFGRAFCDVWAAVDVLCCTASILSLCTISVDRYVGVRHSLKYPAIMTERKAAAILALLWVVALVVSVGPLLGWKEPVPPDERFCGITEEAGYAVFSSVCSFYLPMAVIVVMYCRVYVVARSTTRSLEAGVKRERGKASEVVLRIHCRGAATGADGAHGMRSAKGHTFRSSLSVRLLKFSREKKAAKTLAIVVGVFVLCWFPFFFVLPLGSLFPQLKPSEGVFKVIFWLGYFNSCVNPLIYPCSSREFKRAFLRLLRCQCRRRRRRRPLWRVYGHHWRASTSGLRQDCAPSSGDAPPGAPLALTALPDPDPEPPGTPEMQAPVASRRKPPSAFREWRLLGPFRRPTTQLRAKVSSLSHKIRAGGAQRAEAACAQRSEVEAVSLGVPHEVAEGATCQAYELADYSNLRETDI

[6] = biological target: Glutamate receptor ionotropic, NMDA 1 (Rattus norvegicus) (UniProt P35439); assay: NMDAGLSI/RA Eurofins-Panlabs selectivity data (BI)
[7] = biological target: Histamine H3 receptor (Homo sapiens) (UniProt Q9Y5N1); assay: H3/H Eurofins-Panlabs selectivity data (BI)
Sequence of Histamine H3 receptor (Homo sapiens) (Q9Y5N1 whole entry): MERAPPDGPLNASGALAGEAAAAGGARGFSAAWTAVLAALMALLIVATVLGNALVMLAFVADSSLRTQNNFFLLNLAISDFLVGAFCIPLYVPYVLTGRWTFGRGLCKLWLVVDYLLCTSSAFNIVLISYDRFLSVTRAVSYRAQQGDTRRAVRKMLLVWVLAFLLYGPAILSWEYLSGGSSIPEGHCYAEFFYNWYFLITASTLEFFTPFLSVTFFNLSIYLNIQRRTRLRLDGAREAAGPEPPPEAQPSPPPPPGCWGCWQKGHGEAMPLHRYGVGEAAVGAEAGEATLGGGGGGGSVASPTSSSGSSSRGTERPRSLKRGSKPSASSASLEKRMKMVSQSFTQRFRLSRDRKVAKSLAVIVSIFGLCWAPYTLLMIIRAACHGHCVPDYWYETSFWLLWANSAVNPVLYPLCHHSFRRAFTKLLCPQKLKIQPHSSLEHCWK

[8] = biological target: D(1A) dopamine receptor (Homo sapiens) (UniProt P21728); assay: D1/HU Eurofins-Panlabs selectivity data (BI)
Sequence of D(1A) dopamine receptor (Homo sapiens) (P21728 whole entry): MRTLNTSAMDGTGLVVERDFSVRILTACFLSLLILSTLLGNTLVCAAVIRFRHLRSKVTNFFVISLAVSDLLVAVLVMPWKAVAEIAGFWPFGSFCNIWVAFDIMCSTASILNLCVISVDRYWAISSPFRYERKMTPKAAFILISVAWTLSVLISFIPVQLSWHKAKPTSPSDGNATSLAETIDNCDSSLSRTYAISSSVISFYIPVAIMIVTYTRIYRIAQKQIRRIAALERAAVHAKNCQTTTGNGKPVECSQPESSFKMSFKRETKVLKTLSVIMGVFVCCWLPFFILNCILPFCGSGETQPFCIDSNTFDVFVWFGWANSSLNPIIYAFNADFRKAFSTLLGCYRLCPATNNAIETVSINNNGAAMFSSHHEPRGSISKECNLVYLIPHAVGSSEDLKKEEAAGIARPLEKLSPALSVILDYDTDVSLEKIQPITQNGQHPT

Measured: residual activity

Sequence of B1 bradykinin receptor (Homo sapiens) (P46663 whole entry): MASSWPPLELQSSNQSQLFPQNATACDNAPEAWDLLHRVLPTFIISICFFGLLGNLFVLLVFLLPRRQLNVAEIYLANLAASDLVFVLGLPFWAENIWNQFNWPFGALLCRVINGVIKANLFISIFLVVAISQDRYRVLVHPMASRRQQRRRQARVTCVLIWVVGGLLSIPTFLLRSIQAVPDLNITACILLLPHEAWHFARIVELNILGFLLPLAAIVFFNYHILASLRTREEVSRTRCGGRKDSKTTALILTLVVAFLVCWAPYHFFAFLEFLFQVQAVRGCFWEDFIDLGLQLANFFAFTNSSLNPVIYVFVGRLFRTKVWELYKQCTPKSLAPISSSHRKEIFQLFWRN
Sequence of Beta-2 adrenergic receptor (Homo sapiens) (P07550 whole entry, looked up): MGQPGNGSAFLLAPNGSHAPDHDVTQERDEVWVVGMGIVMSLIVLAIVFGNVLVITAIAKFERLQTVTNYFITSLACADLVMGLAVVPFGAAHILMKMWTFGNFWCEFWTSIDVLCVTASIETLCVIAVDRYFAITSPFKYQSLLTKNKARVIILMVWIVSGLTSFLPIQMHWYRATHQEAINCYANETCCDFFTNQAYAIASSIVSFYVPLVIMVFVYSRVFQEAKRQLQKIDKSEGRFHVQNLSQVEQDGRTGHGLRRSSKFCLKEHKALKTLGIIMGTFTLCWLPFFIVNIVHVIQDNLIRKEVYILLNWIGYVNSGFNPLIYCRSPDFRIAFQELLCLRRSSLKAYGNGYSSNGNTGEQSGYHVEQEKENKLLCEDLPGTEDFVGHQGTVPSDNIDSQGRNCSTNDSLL

CC(=O)N1CCC(c2ccc(C(=O)NC(=N)N)cc2C(F)(F)F)CC1 [BI 9627]
inactive: [1] 102% | [2] 97% | [3] 96% | [4] 105% | [5] 98% | [6] 109% | [7] 109% | [8] 94%
